Assay results: ChEMBL document CHEMBL3272098, “Reactions of 2-acyloxyisobutyryl halides with nucleosides. 7. Synthesis and biological evaluation of some 2,2'-anhydro-1(3',5'-di-O-acyl-beta-D-arabinofuranosyl)cytosine hydrochlorides” (J Med Chem, 1976)
Active and inactive are the calls of the source. The calls are words filed in the database; no cut-off is given here.

These compounds were tested on HeLa (assay: Cytotoxicity against human HeLa cells after 48 hrs by Coulter counting analysis). Details: read-out: ED50 (the source's name).
Type: functional

Compound | EC50
CC(=O)OC[C@H]1O[C@@H]2[C@@H](Oc3nc(=N)ccn32)[C@@H]1OC(C)=O.Cl | 0.2 µg/mL
CCCCCCCCCCCCCCCCCCCCCC(=O)OC[C@H]1O[C@@H]2[C@@H](Oc3nc(=N)ccn32)[C@@H]1OC(=O)CCCCCCCCCCCCCCCCCCCCC.Cl | > 10 µg/mL

The compounds below were run on Vaccinia virus (assay: Antiviral activity against Vaccinia virus IHD infected in African green monkey BGM cells after 6 days by plaque reduction assay). Details: Orthopoxvirus vaccinia, 144 h, read-out: ED50 (the source's name).
Type: functional

Compound | EC50
CC(=O)OC[C@H]1O[C@@H]2[C@@H](Oc3nc(=N)ccn32)[C@@H]1OC(C)=O.Cl | 0.69 µM
CCCCCCCCCCCCCCCCCCCCCC(=O)OC[C@H]1O[C@@H]2[C@@H](Oc3nc(=N)ccn32)[C@@H]1OC(=O)CCCCCCCCCCCCCCCCCCCCC.Cl | > 30 µM

These compounds were tested on Herpesviridae sp. (assay: Antiviral activity against Herpes simplex virus HF infected in African green monkey BGM cells after 6 days by plaque reduction assay). Details: 144 h, read-out: ED50 (the source's name).
Type: functional

Compound | EC50
CC(=O)OC[C@H]1O[C@@H]2[C@@H](Oc3nc(=N)ccn32)[C@@H]1OC(C)=O.Cl | 2.4 µM
CCCCCCCCCCCCCCCCCCCCCC(=O)OC[C@H]1O[C@@H]2[C@@H](Oc3nc(=N)ccn32)[C@@H]1OC(=O)CCCCCCCCCCCCCCCCCCCCC.Cl | > 30 µM

What follows are compounds tested on BGM (assay: Antiviral activity against Poliovirus type 1 Mahoney infected in African green monkey BGM cells after 5 days by pulp disk diffusion assay). Details: Human poliovirus 1 Mahoney.
Type: functional, cell-based

Compound | Activity
CC(=O)OC[C@H]1O[C@@H]2[C@@H](Oc3nc(=N)ccn32)[C@@H]1OC(C)=O.Cl | inactive
CCCCCCCCCCCCCCCCCCCCCC(=O)OC[C@H]1O[C@@H]2[C@@H](Oc3nc(=N)ccn32)[C@@H]1OC(=O)CCCCCCCCCCCCCCCCCCCCC.Cl | inactive

What follows are compounds tested on Measles morbillivirus (assay: Antiviral activity against Measles virus infected in African green monkey BGM cells after 5 days by pulp disk diffusion assay). Details: not given.
Type: functional, organism-based

Compound | Activity
CC(=O)OC[C@H]1O[C@@H]2[C@@H](Oc3nc(=N)ccn32)[C@@H]1OC(C)=O.Cl | inactive
CCCCCCCCCCCCCCCCCCCCCC(=O)OC[C@H]1O[C@@H]2[C@@H](Oc3nc(=N)ccn32)[C@@H]1OC(=O)CCCCCCCCCCCCCCCCCCCCC.Cl | inactive

What follows are compounds tested on unidentified influenza virus (assay: Antiviral activity against Influenza virus Ao/WNS infected in monkey LLC-MK2 cells after 5 days by pulp disk diffusion assay). Details: not given.
Type: functional, organism-based

Compound | Activity
CC(=O)OC[C@H]1O[C@@H]2[C@@H](Oc3nc(=N)ccn32)[C@@H]1OC(C)=O.Cl | inactive
CCCCCCCCCCCCCCCCCCCCCC(=O)OC[C@H]1O[C@@H]2[C@@H](Oc3nc(=N)ccn32)[C@@H]1OC(=O)CCCCCCCCCCCCCCCCCCCCC.Cl | inactive

The compounds below were run on L1210 (assay: Antitumor activity against mouse L1210 cells allografted in BDF1 mouse assessed as increase in life span at 50 mg/kg, ip administered 24 hrs post-implantation measured up to 30 days relative to control). Details: route intraperitoneal.
Type: functional

Compound | ILS at 50 mg/kg
CCCCCCCCCCCCCCCCCCCCCC(=O)OC[C@H]1O[C@@H]2[C@@H](Oc3nc(=N)ccn32)[C@@H]1OC(=O)CCCCCCCCCCCCCCCCCCCCC.Cl | 15%

The compounds below were run on L1210 (assay: Antitumor activity against mouse L1210 cells allografted in BDF1 mouse assessed as increase in life span at 200 mg/kg, ip administered 24 hrs post-implantation measured up to 30 days relative to control). Details: route intraperitoneal.
Type: functional

Compound | ILS at 200 mg/kg
CC(=O)OC[C@H]1O[C@@H]2[C@@H](Oc3nc(=N)ccn32)[C@@H]1OC(C)=O.Cl | 7%
CCCCCCCCCCCCCCCCCCCCCC(=O)OC[C@H]1O[C@@H]2[C@@H](Oc3nc(=N)ccn32)[C@@H]1OC(=O)CCCCCCCCCCCCCCCCCCCCC.Cl | 55%

The compounds below were run on L1210 (assay: Antitumor activity against mouse L1210 cells allografted in BDF1 mouse assessed as increase in life span at 1000 mg/kg, ip administered 24 hrs post-implantation measured up to 30 days relative to control). Details: route intraperitoneal.
Type: functional

Compound | ILS at 1000 mg/kg
CCCCCCCCCCCCCCCCCCCCCC(=O)OC[C@H]1O[C@@H]2[C@@H](Oc3nc(=N)ccn32)[C@@H]1OC(=O)CCCCCCCCCCCCCCCCCCCCC.Cl | 139%

What follows are compounds tested on L1210 (assay: Antitumor activity against mouse L1210 cells allografted in BDF1 mouse assessed as survival at 50 mg/kg, ip administered 24 hrs post-implantation after 30 days). Details: not given.
Type: functional, organism-based
Parameters: dose 50 mg/kg

Compound | Activity
CCCCCCCCCCCCCCCCCCCCCC(=O)OC[C@H]1O[C@@H]2[C@@H](Oc3nc(=N)ccn32)[C@@H]1OC(=O)CCCCCCCCCCCCCCCCCCCCC.Cl | inactive

These compounds were tested on L1210 (assay: Antitumor activity against mouse L1210 cells allografted in BDF1 mouse assessed as survival at 200 mg/kg, ip administered 24 hrs post-implantation after 30 days). Details: not given.
Type: functional, organism-based
Parameters: dose 200 mg/kg

Compound | Activity
CC(=O)OC[C@H]1O[C@@H]2[C@@H](Oc3nc(=N)ccn32)[C@@H]1OC(C)=O.Cl | inactive
CCCCCCCCCCCCCCCCCCCCCC(=O)OC[C@H]1O[C@@H]2[C@@H](Oc3nc(=N)ccn32)[C@@H]1OC(=O)CCCCCCCCCCCCCCCCCCCCC.Cl | inactive

What follows are compounds tested on L1210 (assay: Antitumor activity against mouse L1210 cells allografted in BDF1 mouse assessed as survival at 1000 mg/kg, ip administered 24 hrs post-implantation after 30 days). Details: not given.
Type: functional, organism-based
Parameters: dose 1000 mg/kg

Compound | Activity
CCCCCCCCCCCCCCCCCCCCCC(=O)OC[C@H]1O[C@@H]2[C@@H](Oc3nc(=N)ccn32)[C@@H]1OC(=O)CCCCCCCCCCCCCCCCCCCCC.Cl | inactive

Each compound was assayed on L1210 (assay: Antitumor activity against mouse L1210 cells allografted in po dosed BDF1 mouse administered 24 hrs post-implantation). Details: not given.
Type: functional, organism-based

Compound | Activity
CC(=O)OC[C@H]1O[C@@H]2[C@@H](Oc3nc(=N)ccn32)[C@@H]1OC(C)=O.Cl | inactive
CCCCCCCCCCCCCCCCCCCCCC(=O)OC[C@H]1O[C@@H]2[C@@H](Oc3nc(=N)ccn32)[C@@H]1OC(=O)CCCCCCCCCCCCCCCCCCCCC.Cl | inactive
